# Assay results: patent US10701931B2, “Mosquito activating formulations” (Commonwealth Scientific and Industrial Research Organisation, priority 2015, dated 2020)
# Values joined by “and” are separate entries in the source; they are usually repeats but may differ in a detail not shown here. Equal entries are not always repeated.
# Key:
# C. annulirostis antennae = assay: Electroantennogram (EAG), non bloodfed females; parameters: species or system Culex annulirostris; conditions: n=5
# Procedure: (§1) In order to assess Y-tube olfactometry experiments and field trials using an independent technique and to investigate the physiological basis of the observed activation and attraction behaviour, electroanntennogram (EAG) and electropalpogram (EPG) studies were performed on A. stephensi female mosquitoes. EAG studies were also performed on Anopheles farauti, Culex annulirostris and Aedes aegypti female mosquitoes.
# (§2) Five to eight days Anopheles stephensi, two to fourteen days old Culex annulirostris and Aedes aegypti as well as four days old Anopheles faraulti non-blooded females, fed on 10% sucrose ad-libitum and then starved for >12 hours, were used. Mosquito head was excised and placed on the reference electrode coated with electrode gel (Parker Laboratories, Orange, N.J.). The distal end of the antennae or palp (<0.5 mm), cut to ensure a good electrical contact, were carefully placed on the recording electrode (Syntech, Germany). Signals were fed to a 10× amplifier and processed with IDAC 4 and PC-based interface and EAG software package (Syntech, Germany).
# (§3) Thus 1-octen-3-ol was used in the EAG analysis as a positive control with thio compounds, (E and Z)-1-methylthio-1-propene, 3-methyl-thio-1-propanol, ally methyl sulphide, and carbon dioxide (5%) and mineral oil (negative control). […]
# [1] = system: Anopheles stephensi antennae; assay: Electroantennogram (EAG), non bloodfed females
# Procedure: as §1, §2
# (§4) Thus 1-octen-3-ol was used in the EAG analysis as a positive control with thio compounds, (E and Z)-1-methylthio-1-propene, 3-methyl-thio-1-propanol, ally methyl sulphide, and carbon dioxide (5%) and mineral oil (negative control). Pure chemicals were diluted in mineral oil to a 10 times v/v stock solution, from which decadal dilutions were made. A 10 μl aliquot of each solution was applied to a filter paper strip (1×3.5 cm; Whatman No. 4, Fisher Scientific) and the solvent was evaporated under a fume hood before inserting the paper strip into 5 ml disposable plastic syringe (Terumo syringes). A 500 ms pulse (5 ml/s) was delivered by stimulus controller CS-55 (Syntech, Germany) to deliver chemical stimulants to a humidified continuous air flow (10 ml/s) over the electrophysiolgical preparation. The chemicals were tested randomly and applied with 0.5-1 min intervals between stimulations.
# (§5) Initial screening was performed using a 10 times dilution (1/10, v/v) source dose solution. Then 1-methylthio-1-propene and 1-octen-3-ol were selected for further dose-response study. A minimum of five mosquitoes were tested for each compound to calculate the average EAG amplitude±standard error (SE).
# [2] = system: Anopheles farauti antennae; assay: Electroantennogram (EAG), non bloodfed females; conditions: chemicals at 1/10 concentrations
# Procedure: as §1, §2, §4, §5
# [3] = system: Anopheles farauti maxillary palps; assay: Electropalpogram (EPG), non bloodfed females; conditions: chemicals at 1/10 concentrations, CO2 5%; for EPG response compared to mineral oil control: n=6
# [4] = system: female An. gambiae antennae; conditions: cited from earlier work
# [5] = system: Anopheles stephensi maxillary palps; assay: Electropalpogram (EPG), non bloodfed females; conditions: for EPG response compared to mineral oil control: n=7
# Procedure: as §1, §2, §4, §5
# [6] = system: female Anopheles funestus antennae; conditions: cited from earlier work
# Anopheles stephensi [7] = assay: Y-tube olfactometer, measurement of attraction against CO2/1-octen-3-ol positive control; format: in vivo; conditions: for Attraction (against CO2 + 1-octen-3-ol): An. stephensi females
# Procedure: Attraction to these components was compared to a standard “positive control” known to elicit a directional response in An. stephensi mosquitoes placed in an olfactometer. The standard used as a positive control is a mix of compressed air, 5% CO2 and an octenol source. Unpaired t-test was used to test for the differences in means for all data sets presented.
# The MR4 strain of An. stephensi (New Delhi, India) was maintained at 27° C., 70% RH, 12:12 L:D and 30 min dawn/dusk periods). 4 to 7 day old female mosquitoes, that had never received a blood meal, were used in experiments. Mosquitoes were maintained on 10% sugar solution ad libitum but starved for 12 hr prior to testing.
# The Y tube olfactometer is made entirely of glass and consists of a release chamber, the Y tube itself, and a trap chamber attached to each arm (FIG. 1). Each trap chamber is divided in two by a fine glass filter. On the far side of those filters, the trap chambers can connect to charcoal filters or to gas bags or gas cylinders. Air is pulled through the olfactometer by connecting the release chamber to a vacuum tap which vents the contents of the tube. Standard air flow (0.4 L/minute) is maintained using a 0.1-1.2 LPM flow meter (John Morris Pty, LTD). The air volume of the Y-tube is approximately 1 litre and is therefore replaced every 2.5 minutes.
# 1 μl 10^−4% 1-octen-3-ol in mineral oil (Sigma Aldrich) was spotted on 1 cm^2 Whatman filter paper.
# 5% CO2 by volume was added to a 10 L FlexFilm gasbag (SKC Inc.) of compressed air.
# When a CO2/1-octen-3-ol mix was required, 5% CO2 was delivered by connecting the gas bag to the requisite Y tube arm and placing the 1-octen-3-ol treated filter paper between the gasbag inlet and the glass filter of the trap chamber.
# All experiments were run under PC2 quarantine conditions, at 27° C., 70% RH, under infrared light. Observers were always in the same position during the tests, at the trap chamber end of the olfactometer, between the 2 arms of the Y tube.
# Using an aspirator, 25-30 starved female An. stephensi were introduced into the release chamber (FIG. 1).
# After each test, mosquitoes were carefully aspirated from the apparatus by disconnecting constituent parts. The apparatus was flushed with clean air (charcoal filters only) for 5 minutes before the next batch of stimuli was introduced.
# A total of 10 replicates (different batches of mosquitoes) were run for each stimuli assessment. Treatment and control arms were alternated between replicates. After completion of 10 replicates, the apparatus was rinsed in acetone and allowed to dry overnight.
# Once the range of doses that “activated” mosquitoes had been established, the capacity of those concentrations to initiate a directional response was tested. In this instance, experiments were conducted in comparison to a positive control of CO2/1-octen-3-ol [[…]]. […] A positive control was used to assess whether test stimuli were at least as attractive as a standard directional stimulus.
# Anopheles stephensi [8] = assay: Y-tube olfactometer, measurement of activation against clean air; format: in vivo; conditions: for Concentration of greatest activation response: tested 10^-2 to 10^-5%; for Activation (against clean air): An. stephensi females
# Procedure: A y-tube olfactometer was used to establish whether the volatile components of human breath elicited behavioural responses in the malaria vector Anopheles stephensi. The MR4 strain of An. stephensi (New Delhi, India) was maintained at 27° C., 70% RH, 12:12 L:D and 30 min dawn/dusk periods). 4 to 7 day old female mosquitoes, that had never received a blood meal, were used in experiments. Mosquitoes were maintained on 10% sugar solution ad libitum but starved for 12 hr prior to testing. The Y tube olfactometer is made entirely of glass and consists of a release chamber, the Y tube itself, and a trap chamber attached to each arm (FIG. 1). Each trap chamber is divided in two by a fine glass filter. On the far side of those filters, the trap chambers can connect to charcoal filters or to gas bags or gas cylinders. Air is pulled through the olfactometer by connecting the release chamber to a vacuum tap which vents the contents of the tube. Standard air flow (0.4 L/minute) is maintained using a 0.1-1.2 LPM flow meter (John Morris Pty, LTD). The air volume of the Y-tube is approximately 1 litre and is therefore replaced every 2.5 minutes. One arm is attached to a gas bag of clean air (from a compressed air cylinder) […]. The other arm remains connected to a carbon filter and the air inlet to give a plume of compressed air plus test stimuli (i.e. standard air concentration of CO2 only). 1 μl 10^−2 to 10^−5% test stimuli in mineral oil (Sigma Aldrich) was spotted on 1 cm^2 Whatman filter paper. Test stimuli was delivered by placing treated filter paper between the air inlet and the trap chamber to give a plume of compressed air plus test stimuli (i.e. standard air concentration of CO2 only). All experiments were run under PC2 quarantine conditions, at 27° C., 70% RH, under infrared light. Observers were always in the same position during the tests, at the trap chamber end of the olfactometer, between the 2 arms of the Y tube. Using an aspirator, 25-30 starved female An. stephensi were introduced into the release chamber (FIG. 1). […] After each test, mosquitoes were carefully aspirated from the apparatus by disconnecting constituent parts. The apparatus was flushed with clean air (charcoal filters only) for 5 minutes before the next batch of stimuli was introduced. A total of 10 replicates (different batches of mosquitoes) were run for each stimuli assessment. Treatment and control arms were alternated between replicates. After completion of 10 replicates, the apparatus was rinsed in acetone and allowed to dry overnight. Initial experiments were therefore less concerned with directional responses and more with establishing the range of doses that appeared to cause some form of excitation. Those initial experiments were conducted in comparison to a neutral control (a negative would be repellent) of clean air drawn through a charcoal filter. The test stimuli were tested against mosquitoes at serial dilutions in the range 10^−2 to 10^−5%. Once mosquitoes had stopped responding, the numbers in the olfactometer arms, base leg and release chamber were counted. Mosquitoes were assumed to have been “activated” if they moved into the Y tube arms.
# Total mosquito = assay: Field trial with CDC light traps, total mosquito catch; format: in vivo; conditions: CDC light trap, one night, treatment per Table 3
# Procedure: (§6) Field trials based on an imperfect Latin square design compared the attraction of An. farauti to MTPE with and without CO2. Treatments included CO2 alone, CO2 in combination with MTPE lure, or MTPE lure alone. Centres for Disease Control and Prevention (CDC) light traps were used to deliver MTPE lures and/or CO2. MTPE lures consisted of 500 μl of MTPE in mineral oil, 10-100,000 ppm spread on filter paper. MTPE/mineral oil mixtures were spread on filter paper, rolled into a tight wick, and inserted into a specimen tube. Specimen tubes where then wired to a CDC trap. CO2 was delivered using 1 kg dry ice, hung above a CDC light trap, as per standard sampling protocols. MTPE+/−CO2 combinations were randomised between 4 trap positions over three nights. Traps were placed at least 50 m apart to manage interference and were set between 5 pm and 7 am each night. Trap catches were subsequently returned to the laboratory, counted and identified as “Anopheles farauti s.l” or “other”.
# (§7) As CO2 is a known mosquito attractant, all catches were compared to CO2 alone.
# Anopheles farauti s.l = assay: Field trial with CDC light traps, Anopheles farauti s.l catch; format: in vivo; conditions: for Anopheles farauti s.l catch numbers: CDC light trap, one night, treatment per Table 3
# Procedure: as §6, §7
# A. aegypti antennae = assay: Electroantennogram (EAG), non bloodfed females; parameters: species or system Aedes aegypti; conditions: n=5
# Procedure: as §1, §2, §3
# [9] = chemicals at 1/10 concentrations, CO2 5%
# [10] = dilution 0.00001 (10^-5)% in mineral oil
# [11] = dilution 0.0001 (10^-4)% in mineral oil
# [12] = dilution 0.01 (10^-2)% in mineral oil
# [13] = dilution 0.001 (10^-3)% in mineral oil
smiles,measurement,setting,value
"C=CC(O)CCCCC (stereo not shown) [1-octen-3-ol, reference compound]","EAG response, comparison among tested chemicals",C. annulirostis antennae,strongest response
same,EAG response compared to mineral oil control,"[1]; chemicals at 1/10 concentrations, CO2 5%, n=6",significantly responded
same,EAG response compared to mineral oil control,"[2]; CO2 5%, n=5",significantly responding
same,EPG response compared to mineral oil control,[3],did not
same,EAG response,[4],significant EAG response
same,EPG response compared to mineral oil control,[5]; [9],did not
same,EAG response,[6],significant EAG response
"C=CCSC [AMS, Allyl methyl sulphide]",Attractiveness relative to 1-octen-3-ol/CO2,Anopheles stephensi [7]; at 0.00001%,twice
same,Attraction (against CO2 + 1-octen-3-ol),Anopheles stephensi [7]; dilution 0.00001 (10^-5)%,Yes
same,EPG response compared to mineral oil control,[5]; [9],significant responses
same,Concentration of greatest activation response,Anopheles stephensi [8]; against clean air,0.00001 % v/v
same,Activation (against clean air),Anopheles stephensi [8]; [10],caused activation and Yes
same,Activation (against clean air),Anopheles stephensi [8]; [11],Yes
same,Activation (against clean air),Anopheles stephensi [8]; [12],Yes
"O=C=O [CO2, carbon dioxide, reference compound]",Total mosquito catch numbers,Total mosquito; CO2 alone (1 kg dry ice),206 and 233 and 298
same,EPG response compared to mineral oil control,[3],significant responses
same,EPG response compared to mineral oil control,[5]; [9],significant responses
"CC=CSC [MTPE, 1-methylthio-1-propene]","EAG response, comparison among tested chemicals",[1]; chemicals at 1/10 concentrations,strongest response
same,"EAG response, dose dependence","[1]; decadal dilutions, n=7",dose dependant
same,"EAG response, comparison among tested chemicals",[2],strongest response
same,Total mosquito catch numbers,Total mosquito; 100 ppm MTPE lure alone,189
same,Total mosquito catch numbers,Total mosquito; CO2 + 1000 ppm MTPE lure,203 and 264 and 358
same,Attractiveness relative to 1-octen-3-ol/CO2,Anopheles stephensi [7]; at 0.0001%,more attractive
same,Attraction (against CO2 + 1-octen-3-ol),Anopheles stephensi [7]; dilution 0.0001 (10^-4)%,Yes
same,"EPG response, comparison among tested chemicals",[3],strongest response
same,"Attractancy in field trial, compared to CO2 alone",Anopheles farauti s.l; 100 ppm,attractive
same,Anopheles farauti s.l catch numbers,Anopheles farauti s.l; 100 ppm MTPE lure alone,28
same,"Attractancy in field trial, effect of CO2","Anopheles farauti s.l; 1,000 ppm MTPE with CO2",CO2 synergises attractancy
same,"Attractancy in field trial, compared to CO2 alone","Anopheles farauti s.l; 10,000 ppm","not attractive, possibly repellent"
same,"Attractancy in field trial, compared to CO2 alone","Anopheles farauti s.l; 100,000 ppm","not attractive, possibly repellent"
same,Anopheles farauti s.l catch numbers,Anopheles farauti s.l; CO2 + 1000 ppm MTPE lure,89 and 78 and 63
same,Dose dependence of attractancy in field trial,"Anopheles farauti s.l; MTPE lures 100-100,000 ppm",Dose dependent attractancy
same,"EPG response, comparison among tested chemicals",[5]; [9],strongest response
same,EPG response compared to mineral oil control,[5]; [9],significant responses
same,"EPG response, dose dependence","[5]; decadal dilutions, n=6",dose dependant
same,Concentration of greatest activation response,Anopheles stephensi [8]; against clean air,0.0001 % v/v
same,Activation compared with that at 0.0001% v/v,Anopheles stephensi [8]; at lower (0.00001%) and higher (0.001-0.01%) concentrations (v/v),reduced
same,Activation (against clean air),Anopheles stephensi [8]; [10],Yes
same,Activation (against clean air),Anopheles stephensi [8]; [11],Yes
same,Activation (against clean air),Anopheles stephensi [8]; [13],Yes
same,Activation (against clean air),Anopheles stephensi [8]; [12],Yes
"CSCCCO [MTPL, 3-methylthio-1-propanol]","EAG response, comparison among tested chemicals",C. annulirostis antennae,strongest response
same,"EAG response, comparison among tested chemicals",A. aegypti antennae,strongest response
same,Attractiveness relative to 1-octen-3-ol/CO2,Anopheles stephensi [7]; at 0.01%,1.5
same,EPG response compared to mineral oil control,[5]; [9],did not
same,Concentration range over which an activation response was initiated,Anopheles stephensi [8]; against clean air,0.00001-0.01%
same,Activation (against clean air),Anopheles stephensi [8]; [11],Yes
same,Activation (against clean air),Anopheles stephensi [8]; [13],Yes
same,Activation (against clean air),Anopheles stephensi [8]; [12],Yes
